This is an account of results in patent publication US20100130519A1 (priority 2007, published 2010).

Experiment [1] concerns Calu-6 human lung tumour xenografts. As to the kind of experiment: Calu-6 Human Lung Cancer Xenograft Model. To be noted: athymic mice, p.o. 24 days. The experiment is classed as in vivo. As to the method:
Experiments were conducted in female athymic mice (Swiss nu/nu genotype, ≧6 weeks of age). Calu-6 human lung tumour xenografts were established in mice by injecting 1×10^6 cells ([…] containing 50% Matrigel®) subcutaneously in the dorsal flank. Tumour volumes were assessed using bilateral Vernier calliper measurement at least twice weekly and calculated using the formula (length×width)×√(length×width)×(π/6), where length was taken to be the longest diameter across the tumour and width the corresponding perpendicular. Mice were randomised into 4 treatment groups (10 mice/group) when the mean tumour volume reached approximately 0.2 cm^3. […] (0.5% w/v Methocel/0.1% w/v Tween 80).
Tumour growth inhibition from the start of treatment was assessed by comparison of the differences in tumour volume between control and treated groups.
Background: Xenograft models place foreign cells or tissue in a host animal.

Experiment [2] relates to Calu-6 tumour xenograft. Briefly: in vivo solid tumour model of WO 00/47212, Calu-6 tumour xenograft. To be noted: once-daily oral, 28 days.
In experiment [3] the test system is HUVEC. As to the kind of experiment: HUVEC assay, endothelial cell proliferation. To be noted: Homo sapiens. The experiment is classed as cell-based.
In experiment [4] the target is c-Kit (stem cell factor receptor tyrosine kinase) (Homo sapiens, UniProt P10721). As to the kind of experiment: c-Kit inhibition. The format is biochemical.
Chain of c-Kit (stem cell factor receptor tyrosine kinase) (P10721 26-976): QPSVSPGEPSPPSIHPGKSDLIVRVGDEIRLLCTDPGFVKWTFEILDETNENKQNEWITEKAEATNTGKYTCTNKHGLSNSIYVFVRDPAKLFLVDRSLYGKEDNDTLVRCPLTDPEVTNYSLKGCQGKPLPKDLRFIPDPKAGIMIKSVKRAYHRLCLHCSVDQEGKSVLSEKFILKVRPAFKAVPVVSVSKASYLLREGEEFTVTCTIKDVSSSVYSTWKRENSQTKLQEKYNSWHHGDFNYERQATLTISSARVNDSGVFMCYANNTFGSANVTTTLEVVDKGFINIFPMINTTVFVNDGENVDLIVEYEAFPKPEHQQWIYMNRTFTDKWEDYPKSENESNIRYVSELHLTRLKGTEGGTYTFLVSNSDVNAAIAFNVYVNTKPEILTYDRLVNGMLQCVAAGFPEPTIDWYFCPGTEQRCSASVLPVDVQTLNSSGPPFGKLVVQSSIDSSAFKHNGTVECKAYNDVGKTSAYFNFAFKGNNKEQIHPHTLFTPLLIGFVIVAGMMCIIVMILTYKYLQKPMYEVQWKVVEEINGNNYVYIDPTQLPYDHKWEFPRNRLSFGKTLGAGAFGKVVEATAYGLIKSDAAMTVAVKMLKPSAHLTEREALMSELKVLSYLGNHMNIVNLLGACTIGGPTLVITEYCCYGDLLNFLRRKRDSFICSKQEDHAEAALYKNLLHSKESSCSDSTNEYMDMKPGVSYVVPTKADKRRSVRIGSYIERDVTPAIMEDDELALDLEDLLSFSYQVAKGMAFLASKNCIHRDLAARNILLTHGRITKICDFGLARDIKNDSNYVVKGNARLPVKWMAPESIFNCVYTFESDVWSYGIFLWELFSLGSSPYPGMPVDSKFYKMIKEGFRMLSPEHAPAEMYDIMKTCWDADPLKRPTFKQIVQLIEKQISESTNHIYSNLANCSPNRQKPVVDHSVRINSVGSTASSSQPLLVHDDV

Read-outs that look alike come from different tables or passages of the source.

For the molecule `Cn1cnc2c(F)c(Nc3ccc(Br)cc3Cl)c(C(=O)NOCCO)cc21` [AZD6244, 6-(4-Bromo-2-chloro-phenylamino)-7-fluoro-3-methyl-3H-benzoimidazole-5-carboxylic acid (2-hydroxy-ethoxy)-amide], the tumour growth inhibition in experiment [1] (AZD6244 3 mg/kg twice daily alone) was 44%.
As to `COc1cc2c(Oc3ccc4[nH]c(C)cc4c3F)ncnc2cc1OCCCN1CCCC1` [AZD2171, 4-(4-fluoro-2-methyl-1H-indol-5-yloxy)-6-methoxy-7-(3-(pyrrolidin-1-yl)propoxy)quinazoline], the “inhibition of growth of Calu-6 tumour xenograft” value in experiment [2] (1.5 mg/kg/day, P<0.01) worked out at 49%; in experiment [2] (3 mg/kg/day, P<0.0001), 69%; in experiment [2] (6 mg/kg/day, P<0.0001) it was 91%. The molecule further gave a tumour growth inhibition in experiment [1] (AZD2171 1.5 mg/kg once daily alone) of 47%. Moreover, the IC50 in experiment [3] (VEGF-stimulated, read-out: IC50, VEGF-stimulated endothelial cell proliferation) was 0.4 ± 0.2 nM; in experiment [3] (basal (no VEGF stimulation), read-out: IC50, basal endothelial cell proliferation), over 500 nM. In addition, the “inhibition of c-Kit” value in experiment [4] is given as “inhibits”.
